{"source": "ChEMBL document CHEMBL3885881", "about": "“DrugMatrix”", "organism": "Rattus norvegicus", "test": "DrugMatrix - Regimen: Daily Repeat", "format": "toxicity, organism-based, Sprague-Dawley", "design": "regimen Daily Repeat, gender Male, age 6-8 weeks", "details": "in vivo, po, 100 mg/kg, route oral GAVAGE, dose level Low, vehicle .5 % CMC; for ABSOLUTE BASOPHIL / ABSOLUTE EOSINOPHIL / ABSOLUTE LYMPHOCYTE / ABSOLUTE MONOCYTE / ABSOLUTE SEGMENTED NEUTROPHIL / BASOPHIL / EOSINOPHIL / ERYTHROCYTE COUNT / HEMATOCRIT / HEMOGLOBIN / LEUKOCYTE COUNT / LYMPHOCYTE / MEAN CORPUSCULAR HEMOGLOBIN / MEAN CORPUSCULAR HEMOGLOBIN CONCENTRATION / MEAN CORPUSCULAR VOLUME / MONOCYTE / NEUTROPHIL / NUCLEATED RED BLOOD CELLS / PLATELET COUNT: tissue Blood; for ALANINE AMINOTRANSFERASE / ALBUMIN / ALKALINE PHOSPHATASE / ASPARTATE AMINOTRANSFERASE / BLOOD UREA NITROGEN / CARBON DIOXIDE / CHLORIDE / CHOLESTEROL / CREATINE PHOSPHOKINASE / CREATININE / GLUCOSE / LACTATE DEHYDROGENASE / LIPASE / PHOSPHORUS / POTASSIUM / SODIUM / TOTAL BILIRUBIN / TOTAL PROTEIN / URIC ACID: tissue Plasma", "data": [{"smiles": "Nc1nc2c(c(=O)[nH]1)N(C=O)C(CNc1ccc(C(=O)N[C@@H](CCC(=O)O)C(=O)O)cc1)CN2", "note": "(stereo partly specified) [LEUCOVORIN]", "values": [{"measurement": "ABSOLUTE BASOPHIL", "setting": "72 h, time 3 day", "value": 0, "unit": "CELLS/uL"}, {"measurement": "ABSOLUTE EOSINOPHIL", "setting": "72 h, time 3 day", "value": 0, "unit": "CELLS/uL"}, {"measurement": "ABSOLUTE LYMPHOCYTE", "setting": "72 h, time 3 day", "value": 14793, "unit": "CELLS/uL"}, {"measurement": "ABSOLUTE MONOCYTE", "setting": "72 h, time 3 day", "value": 101.33, "unit": "CELLS/uL"}, {"measurement": "ABSOLUTE SEGMENTED NEUTROPHIL", "setting": "72 h, time 3 day", "value": 1572.33, "unit": "CELLS/uL"}, {"measurement": "BASOPHIL", "setting": "72 h, time 3 day", "value": 0, "unit": "%"}, {"measurement": "EOSINOPHIL", "setting": "72 h, time 3 day", "value": 0, "unit": "%"}, {"measurement": "ERYTHROCYTE COUNT", "setting": "72 h, time 3 day", "value": 5.73, "unit": "x10E6/uL"}, {"measurement": "HEMATOCRIT", "setting": "72 h, time 3 day", "value": 35.97, "unit": "%"}, {"measurement": "HEMOGLOBIN", "setting": "72 h, time 3 day", "value": 14.23, "unit": "G/DL"}, {"measurement": "LEUKOCYTE COUNT", "setting": "72 h, time 3 day", "value": 16.47, "unit": "x10E3/uL"}, {"measurement": "LYMPHOCYTE", "setting": "72 h, time 3 day", "value": 89.67, "unit": "%"}, {"measurement": "MEAN CORPUSCULAR HEMOGLOBIN", "setting": "72 h, time 3 day", "value": 24.9, "unit": "pg"}, {"measurement": "MEAN CORPUSCULAR HEMOGLOBIN CONCENTRATION", "setting": "72 h, time 3 day", "value": 39.63, "unit": "G/DL"}, {"measurement": "MEAN CORPUSCULAR VOLUME", "setting": "72 h, time 3 day", "value": 62.83, "unit": "fL"}, {"measurement": "MONOCYTE", "setting": "72 h, time 3 day", "value": 0.67, "unit": "%"}, {"measurement": "NEUTROPHIL", "setting": "72 h, time 3 day", "value": 9.67, "unit": "%"}, {"measurement": "NUCLEATED RED BLOOD CELLS", "setting": "72 h, time 3 day", "value": "0.33 /100WBC"}, {"measurement": "PLATELET COUNT", "setting": "72 h, time 3 day", "value": 1244.67, "unit": "x10E3/uL"}, {"measurement": "ALANINE AMINOTRANSFERASE", "setting": "72 h, time 3 day", "value": 62.33, "unit": "u/L"}, {"measurement": "ALBUMIN", "setting": "72 h, time 3 day", "value": 4.43, "unit": "G/DL"}, {"measurement": "ALKALINE PHOSPHATASE", "setting": "72 h, time 3 day", "value": 427.33, "unit": "u/L"}, {"measurement": "ASPARTATE AMINOTRANSFERASE", "setting": "72 h, time 3 day", "value": 83.67, "unit": "u/L"}, {"measurement": "BLOOD UREA NITROGEN", "setting": "72 h, time 3 day", "value": 16.33, "unit": "mg/dL"}, {"measurement": "CARBON DIOXIDE", "setting": "72 h, time 3 day", "value": 29, "unit": "mmol/L"}, {"measurement": "CHLORIDE", "setting": "72 h, time 3 day", "value": 98.67, "unit": "MEQ/L"}, {"measurement": "CHOLESTEROL", "setting": "72 h, time 3 day", "value": 67, "unit": "mg/dL"}, {"measurement": "CREATINE PHOSPHOKINASE", "setting": "72 h, time 3 day", "value": 289.67, "unit": "u/L"}, {"measurement": "CREATININE", "setting": "72 h, time 3 day", "value": 0.22, "unit": "mg/dL"}, {"measurement": "GLUCOSE", "setting": "72 h, time 3 day", "value": 142, "unit": "mg/dL"}, {"measurement": "LACTATE DEHYDROGENASE", "setting": "72 h, time 3 day", "value": 152.33, "unit": "u/L"}, {"measurement": "LIPASE", "setting": "72 h, time 3 day", "value": 9.33, "unit": "u/L"}, {"measurement": "PHOSPHORUS", "setting": "72 h, time 3 day", "value": 14.03, "unit": "mg/dL"}, {"measurement": "POTASSIUM", "setting": "72 h, time 3 day", "value": 7.04, "unit": "MEQ/L"}, {"measurement": "SODIUM", "setting": "72 h, time 3 day", "value": 146.13, "unit": "MEQ/L"}, {"measurement": "TOTAL BILIRUBIN", "setting": "72 h, time 3 day", "value": 0.3, "unit": "mg/dL"}, {"measurement": "TOTAL PROTEIN", "setting": "72 h, time 3 day", "value": 6.1, "unit": "G/DL"}, {"measurement": "URIC ACID", "setting": "72 h, time 3 day", "value": 1.77, "unit": "mg/dL"}, {"measurement": "ABSOLUTE BASOPHIL", "setting": "120 h, time 5 day", "value": 0, "unit": "CELLS/uL"}, {"measurement": "ABSOLUTE EOSINOPHIL", "setting": "120 h, time 5 day", "value": 60.33, "unit": "CELLS/uL"}, {"measurement": "ABSOLUTE LYMPHOCYTE", "setting": "120 h, time 5 day", "value": 13263.33, "unit": "CELLS/uL"}, {"measurement": "ABSOLUTE MONOCYTE", "setting": "120 h, time 5 day", "value": 23.33, "unit": "CELLS/uL"}, {"measurement": "ABSOLUTE SEGMENTED NEUTROPHIL", "setting": "120 h, time 5 day", "value": 1019.67, "unit": "CELLS/uL"}, {"measurement": "BASOPHIL", "setting": "120 h, time 5 day", "value": 0, "unit": "%"}, {"measurement": "EOSINOPHIL", "setting": "120 h, time 5 day", "value": 0.33, "unit": "%"}, {"measurement": "ERYTHROCYTE COUNT", "setting": "120 h, time 5 day", "value": 5.54, "unit": "x10E6/uL"}, {"measurement": "HEMATOCRIT", "setting": "120 h, time 5 day", "value": 36.17, "unit": "%"}, {"measurement": "HEMOGLOBIN", "setting": "120 h, time 5 day", "value": 13.53, "unit": "G/DL"}, {"measurement": "LEUKOCYTE COUNT", "setting": "120 h, time 5 day", "value": 14.37, "unit": "x10E3/uL"}, {"measurement": "LYMPHOCYTE", "setting": "120 h, time 5 day", "value": 92.67, "unit": "%"}, {"measurement": "MEAN CORPUSCULAR HEMOGLOBIN", "setting": "120 h, time 5 day", "value": 24.4, "unit": "pg"}, {"measurement": "MEAN CORPUSCULAR HEMOGLOBIN CONCENTRATION", "setting": "120 h, time 5 day", "value": 37.4, "unit": "G/DL"}, {"measurement": "MEAN CORPUSCULAR VOLUME", "setting": "120 h, time 5 day", "value": 65.23, "unit": "fL"}, {"measurement": "MONOCYTE", "setting": "120 h, time 5 day", "value": 0.33, "unit": "%"}, {"measurement": "NEUTROPHIL", "setting": "120 h, time 5 day", "value": 6.67, "unit": "%"}, {"measurement": "NUCLEATED RED BLOOD CELLS", "setting": "120 h, time 5 day", "value": "1 /100WBC"}, {"measurement": "PLATELET COUNT", "setting": "120 h, time 5 day", "value": 1225.67, "unit": "x10E3/uL"}, {"measurement": "ALANINE AMINOTRANSFERASE", "setting": "120 h, time 5 day", "value": 52, "unit": "u/L"}, {"measurement": "ALBUMIN", "setting": "120 h, time 5 day", "value": 4.3, "unit": "G/DL"}, {"measurement": "ALKALINE PHOSPHATASE", "setting": "120 h, time 5 day", "value": 311.67, "unit": "u/L"}, {"measurement": "ASPARTATE AMINOTRANSFERASE", "setting": "120 h, time 5 day", "value": 76, "unit": "u/L"}, {"measurement": "BLOOD UREA NITROGEN", "setting": "120 h, time 5 day", "value": 15.33, "unit": "mg/dL"}, {"measurement": "CARBON DIOXIDE", "setting": "120 h, time 5 day", "value": 26, "unit": "mmol/L"}, {"measurement": "CHLORIDE", "setting": "120 h, time 5 day", "value": 102, "unit": "MEQ/L"}, {"measurement": "CHOLESTEROL", "setting": "120 h, time 5 day", "value": 57.33, "unit": "mg/dL"}, {"measurement": "CREATINE PHOSPHOKINASE", "setting": "120 h, time 5 day", "value": 211.67, "unit": "u/L"}, {"measurement": "CREATININE", "setting": "120 h, time 5 day", "value": 0.21, "unit": "mg/dL"}, {"measurement": "GLUCOSE", "setting": "120 h, time 5 day", "value": 175.67, "unit": "mg/dL"}, {"measurement": "LACTATE DEHYDROGENASE", "setting": "120 h, time 5 day", "value": 113.33, "unit": "u/L"}, {"measurement": "LIPASE", "setting": "120 h, time 5 day", "value": 8.67, "unit": "u/L"}, {"measurement": "PHOSPHORUS", "setting": "120 h, time 5 day", "value": 12.6, "unit": "mg/dL"}, {"measurement": "POTASSIUM", "setting": "120 h, time 5 day", "value": 6.61, "unit": "MEQ/L"}, {"measurement": "SODIUM", "setting": "120 h, time 5 day", "value": 146.23, "unit": "MEQ/L"}, {"measurement": "TOTAL BILIRUBIN", "setting": "120 h, time 5 day", "value": 0.23, "unit": "mg/dL"}, {"measurement": "TOTAL PROTEIN", "setting": "120 h, time 5 day", "value": 6.1, "unit": "G/DL"}, {"measurement": "URIC ACID", "setting": "120 h, time 5 day", "value": 1.7, "unit": "mg/dL"}]}]}
